Data from patent US20240158348A1, “HERBICIDAL CYCLIC AMIDES N-SUBSTITUTED WITH A HALOALKYLSULFONYLANILIDE GROUP” (FMC Corporation, priority 2021, published 2024).

Tests used:
Type in all cases: in vivo
[1] = test system: ragweed (common ragweed, Ambrosia artemisiifolia); experiment: Test C preemergence, ragweed; details: 0 is no effect, 100 is complete control
Summary of the method: (§1)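 Visual injury rating, 0 (no effect) to 100 (complete control), versus untreated controls after 10 or 12 days in the greenhouse. Compounds were formulated in non-phytotoxic solvent plus surfactant and applied either as a directed soil spray at sowing or onto emerged one- to two-leaf plants.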

soybean (Glycine max) [2] = experiment: Test C preemergence, soybean; details: 0 is no effect, 100 is complete control
Summary of the method: as §1

[3] = test system: wheat (Triticum aestivum); experiment: Test C preemergence, wheat; details: 0 is no effect, 100 is complete control
corn (Zea mays) = experiment: Test C postemergence, corn; details: for Corn plant response rating: 31 g ai/ha Postemergence, visual injury, 0 to 100 scale (0 no effect, 100 complete control); for Plant response rating (0 to 100 scale), Corn: 125 g ai/ha Postemergence, 0 is no effect, 100 is complete control
[4] = test system: ryegrass, Italian (Italian ryegrass, Lolium multiflorum); experiment: Test C postemergence, Italian ryegrass; details: for Ryegrass, Italian plant response rating: 31 g ai/ha Postemergence, visual injury, 0 to 100 scale (0 no effect, 100 complete control); for Plant response rating (0 to 100 scale), Ryegrass, Italian: 125 g ai/ha Postemergence, 0 is no effect, 100 is complete control
Summary of the method: as §1

[5] = test system: blackgrass (Alopecurus myosuroides); experiment: Test C preemergence, blackgrass; details: 0 is no effect, 100 is complete control
Summary of the method: as §1

soybean (Glycine max) [6] = experiment: Test C postemergence, soybean; details: for Soybean plant response rating: 31 g ai/ha Postemergence, visual injury, 0 to 100 scale (0 no effect, 100 complete control); for Plant response rating (0 to 100 scale), Soybean: 125 g ai/ha Postemergence, 0 is no effect, 100 is complete control
[7] = test system: foxtail, giant (giant foxtail, Setaria faberi); experiment: Test C preemergence, giant foxtail; details: 0 is no effect, 100 is complete control
Summary of the method: as §1

| Compound | Plant response rating (0 to 100 scale), Ragweed ([1]; 31 g ai/ha Preemergence) | Plant response rating (0 to 100 scale), Ragweed ([1]; 125 g ai/ha Preemergence) | Plant response rating (0 to 100 scale), Soybean (soybean (Glycine max) [2]; 31 g ai/ha Preemergence) | Plant response rating (0 to 100 scale), Soybean (soybean (Glycine max) [2]; 125 g ai/ha Preemergence) | Plant response rating (0 to 100 scale), Wheat ([3]; 31 g ai/ha Preemergence) | Plant response rating (0 to 100 scale), Wheat ([3]; 125 g ai/ha Preemergence) | Corn plant response rating (corn (Zea mays)) | Plant response rating (0 to 100 scale), Corn (corn (Zea mays)) | Ryegrass, Italian plant response rating [4] | Plant response rating (0 to 100 scale), Ryegrass, Italian [4] | Plant response rating (0 to 100 scale), Blackgrass ([5]; 31 g ai/ha Preemergence) | Plant response rating (0 to 100 scale), Blackgrass ([5]; 125 g ai/ha Preemergence) | Soybean plant response rating (soybean (Glycine max) [6]) | Plant response rating (0 to 100 scale), Soybean (soybean (Glycine max) [6]) | Plant response rating (0 to 100 scale), Foxtail, Giant ([7]; 31 g ai/ha Preemergence) | Plant response rating (0 to 100 scale), Foxtail, Giant ([7]; 125 g ai/ha Preemergence) |
| --- | --- | --- | --- | --- | --- | --- | --- | --- | --- | --- | --- | --- | --- | --- | --- | --- |
| Cc1cc(C)c(N2CCC(O)C2=O)cc1NS(=O)(=O)C(F)(F)F (stereo not drawn) [Compound 14] | 20 | 60 | 100 | 100 | 50 | 100 | 70 | 90 | 60 | 100 | 60 | 90 | 80 | 80 | 80 | 100 |
| COC(=O)N(c1cc(N2CCC(OC3CC3)C2=O)c(C)cc1C)S(=O)(=O)C(F)(F)F (stereo not drawn) [Compound 16] | 0 | 0 | 20 | 20 | 0 | 0 | 0 | 0 | 0 | 0 | 0 | 0 | 40 | 60 | 0 | 0 |
| CC(=O)N(c1cc(N2CCC(OC3CC3)C2=O)c(C)cc1C)S(=O)(=O)C(F)(F)F (stereo not drawn) [Compound 17] | 80 | 90 | 80 | 100 | 30 | 100 | 90 | 90 | 60 | 90 | 80 | 90 | 60 | 80 | 90 | 100 |
| CCOC(=O)N(c1cc(N2CCC(OC3CC3)C2=O)c(C)cc1C)S(=O)(=O)C(F)(F)F (stereo not drawn) [Compound 19] | 0 | 10 | 30 | 90 | 0 | 10 | 0 | 20 | 0 | 50 | 0 | 40 | 80 | 80 | 0 | 10 |
| CCCC(=O)OCN(c1cc(N2CCC(OC3CC3)C2=O)c(C)cc1C)S(=O)(=O)C(F)(F)F (stereo not drawn) [Compound 20] | 60 | 90 | 70 | 90 | 70 | 100 | 90 | 90 | 60 | 100 | 80 | 100 | 60 | 70 | 90 | 100 |
| Cc1cc(C)c(N(C(=O)OCC(C)C)S(=O)(=O)C(F)(F)F)cc1N1CCC(OC2CC2)C1=O (stereo not drawn) [Compound 21] | 40 | 80 | 0 | 60 | 10 | 90 | 90 | 90 | 50 | 100 | 10 | 80 | 60 | 60 | 100 | 100 |
